Measurements: ChEMBL document CHEMBL5579852, “Promising anti-proliferative indolic benzenesulfonamides alter mechanisms with sulfonamide nitrogen substituents” (Eur J Med Chem, 2024)

How the values were obtained:
HeLa [1] = test: Antiproliferative activity against human HeLa cells assessed as reduction in cell viability incubated for 72 hrs by MTT assay; assay type: functional, cell-based
HeLa [2] = test: Antiproliferative activity against human HeLa cells assessed as inhibition of cell growth incubated for 72 hrs in presence of verapamil by MTT assay; assay type: functional, cell-based
MDA-MB-468 = test: cells; conditions: Homo sapiens, MDA-MB-468, 72 h
Description: Antiproliferative activity against human MDA-MB-468 cells assessed as reduction in cell viability incubated for 72 hrs by CelltiterGlo luminescent assay

[3] = Antiproliferative activity against human RPE-1 cells assessed as reduction in cell viability incubated for 72 hrs by CelltiterGlo luminescent assay; assay type: toxicity, cell-based; conditions: RPE-1 cells (TERT-RPE1)
HeLa [4] = test: Antiproliferative activity against human HeLa cells assessed as inhibition of cell growth incubated for 72 hrs in absence of verapamil by MTT assay; assay type: functional, cell-based
BT-474 = test: Antiproliferative activity against human BT-474 cells assessed as reduction in cell viability incubated for 72 hrs by CelltiterGlo luminescent assay; conditions: BT-474, 72 h
[5] = Antiproliferative activity against human Hermes 3C cells assessed as reduction in cell viability incubated for 72 hrs by CelltiterGlo luminescent assay; assay type: toxicity, cell-based
A-375 = test: Antiproliferative activity against human A-375 cells assessed as reduction in cell viability incubated for 72 hrs by CelltiterGlo luminescent assay; conditions: A-375, 72 h
[6] = Antiproliferative activity against human WM1366 cells assessed as reduction in cell viability incubated for 72 hrs by CelltiterGlo luminescent assay; conditions: WM1366, 72 h
CAKI-1 = test: Antiproliferative activity against human CAKI-1 cells assessed as reduction in cell viability incubated for 72 hrs by CelltiterGlo luminescent assay; conditions: CAKI-1, 72 h
[7] = Antiproliferative activity against human HEK293 cells assessed as reduction in cell viability incubated for 72 hrs by CelltiterGlo luminescent assay; assay type: toxicity, cell-based
cells = conditions: Homo sapiens, MDA-MB-468, 72 h
HeLa [8] = test: Antiproliferative activity against human HeLa cells assessed as reduction in cell viability incubated for 72 hrs by CelltiterGlo luminescent assay; assay type: functional, cell-based
HT-1080 = test: Antiproliferative activity against human HT-1080 cells assessed as reduction in cell viability incubated for 72 hrs by CelltiterGlo luminescent assay; conditions: HT-1080, 72 h
MCF7 = test: Antiproliferative activity against human MCF7 cells assessed as reduction in cell viability incubated for 72 hrs by CelltiterGlo luminescent assay; assay type: functional, cell-based; conditions: MCF7, 72 h
[9] = Antiproliferative activity against human Melmet 5 cells assessed as reduction in cell viability incubated for 72 hrs by CelltiterGlo luminescent assay; conditions: Melmet 5, 72 h
MES-SA = test: Antiproliferative activity against human MES-SA cells assessed as reduction in cell viability incubated for 72 hrs by CelltiterGlo luminescent assay

## COc1cc(S(=O)(=O)N(CC(N)=O)c2ccc3c(ccn3C)c2)cc(OC)c1OC
HeLa [1]
  IC50: 275 nM

## COc1cc(S(=O)(=O)N(Cc2ccc([N+](=O)[O-])cc2)c2ccc3c(ccn3C)c2)cc(OC)c1OC
HeLa [1]
  IC50: > 1000 nM

## COc1cc(S(=O)(=O)N(C)c2ccc3c(c2)c(C=O)cn3C)cc(OC)c1OC
HeLa [1]
  IC50: 16.5 nM
HeLa [2]
  IC50: 14.6 nM
MDA-MB-468
  IC50: 17.2 nM
[3]
  IC50 at 72 h: 12 nM
HeLa [4]
  IC50: 18.4 nM
BT-474
  IC50: 10.6 nM
[5]
  IC50 at 72 h: 52.8 nM
A-375
  IC50: 8.7 nM
[6]
  IC50: 11.6 nM
CAKI-1
  IC50: 12.9 nM
[7]
  IC50 at 72 h: 50.2 nM
cells
  IC50: 32.9 nM
HeLa [8]
  IC50: 5.3 nM
HT-1080
  IC50: 8.1 nM
MCF7
  IC50: 9.3 nM
[9]
  IC50: 3.9 nM
MES-SA
  IC50: 17.9 nM

## COc1cc(S(=O)(=O)N(CC#N)c2ccc3c(c2)c(C(N)=O)cn3C)cc(OC)c1OC
HeLa [1]
  IC50: 50.9 nM
HeLa [2]
  IC50: 26.4 nM
MDA-MB-468
  IC50: 20.3 nM
[3]
  IC50 at 72 h: 33 nM
HeLa [4]
  IC50: 50.9 nM
BT-474
  IC50: 40.8 nM
[5]
  IC50 at 72 h: 88.5 nM
A-375
  IC50: 48.3 nM
[6]
  IC50: 36 nM
CAKI-1
  IC50: 98.3 nM
[7]
  IC50 at 72 h: 282 nM
cells
  IC50: 72.9 nM
HeLa [8]
  IC50: 68.8 nM
HT-1080
  IC50: 16.6 nM
MCF7
  IC50: 48.6 nM
[9]
  IC50: 16.2 nM
MES-SA
  IC50: 14.2 nM

## CC(=O)O[C@H]1C(=O)[C@@]2(C)[C@H]([C@H](OC(=O)c3ccccc3)[C@]3(O)C[C@H](OC(=O)[C@H](O)[C@@H](NC(=O)c4ccccc4)c4ccccc4)C(C)=C1C3(C)C)[C@]1(OC(C)=O)CO[C@@H]1C[C@@H]2O [PACLITAXEL]
[5]
  IC50 at 72 h: 1 nM
[7]
  IC50 at 72 h: 26.8 nM

## COc1cc(S(=O)(=O)N(Cc2cccc([N+](=O)[O-])c2)c2ccc3c(ccn3C)c2)cc(OC)c1OC
HeLa [1]
  IC50: > 1000 nM

## COc1cc2c(c(OC)c1OC)-c1ccc(OC)c(=O)cc1[C@@H](NC(C)=O)CC2 [COLCHICINE]
HeLa [2]
  IC50: 9.3 nM
HeLa [4]
  IC50: 16.7 nM

## CCC1=C[C@@H]2CN(C1)Cc1c([nH]c3ccccc13)[C@@](C(=O)OC)(c1cc3c(cc1OC)N(C)[C@H]1[C@@](O)(C(=O)OC)[C@H](OC(C)=O)[C@]4(CC)C=CCN5CC[C@]31[C@@H]54)C2 [VINORELBINE]
MDA-MB-468
  IC50: 0.1 nM
[3]
  IC50 at 72 h: 9.3 nM
BT-474
  IC50: 0.3 nM
[5]
  IC50 at 72 h: 0.5 nM
A-375
  IC50: 0.6 nM
[6]
  IC50: 0.9 nM
CAKI-1
  IC50: 0.3 nM
[7]
  IC50 at 72 h: 15.9 nM
HeLa [8]
  IC50: 0.3 nM
HT-1080
  IC50: 0.1 nM
MCF7
  IC50: 0.8 nM
[9]
  IC50: 0.1 nM
MES-SA
  IC50: 0.4 nM

## CCN(c1ccc2c(ccn2C)c1)S(=O)(=O)c1cc(OC)c(OC)c(OC)c1
HeLa [1]
  IC50: 109 nM
HeLa [2]
  IC50: 105 nM
MDA-MB-468
  IC50: 161 nM
[3]
  IC50 at 72 h: 335 nM
HeLa [4]
  IC50: 123 nM
BT-474
  IC50: 792 nM
[5]
  IC50 at 72 h: 965 nM
A-375
  IC50: 363 nM
[6]
  IC50: 517 nM
CAKI-1
  IC50: 158 nM
[7]
  IC50 at 72 h: 323 nM
cells
  IC50: 145 nM
HeLa [8]
  IC50: 108 nM
HT-1080
  IC50: 104 nM
MCF7
  IC50: 347 nM
[9]
  IC50: 96.2 nM
MES-SA
  IC50: 148 nM

## COc1cc(S(=O)(=O)N(C)c2ccc3c(c2)c(C(=O)O)cn3C)cc(OC)c1OC
HeLa [1]
  IC50: > 1000 nM

## COc1cc(S(=O)(=O)N(CCCCC(=O)O)c2ccc3c(ccn3C)c2)cc(OC)c1OC
HeLa [1]
  IC50: > 1000 nM

## COc1cc(S(=O)(=O)N(Cc2cccc(N)c2)c2ccc3c(ccn3C)c2)cc(OC)c1OC
HeLa [1]
  IC50: > 1000 nM

## CCOC(=O)CN(c1ccc2c(ccn2C)c1)S(=O)(=O)c1cc(OC)c(OC)c(OC)c1
HeLa [1]
  IC50: > 1000 nM

## COc1cc(S(=O)(=O)N(Cc2ccccc2)c2ccc3c(ccn3C)c2)cc(OC)c1OC
HeLa [1]
  IC50: > 1000 nM

## COc1cc(S(=O)(=O)N(CCN2CCOCC2)c2ccc3c(ccn3C)c2)cc(OC)c1OC
HeLa [1]
  IC50: > 1000 nM

## CCOC(=O)CCCN(c1ccc2c(ccn2C)c1)S(=O)(=O)c1cc(OC)c(OC)c(OC)c1
HeLa [1]
  IC50: > 1000 nM

## COc1cc(S(=O)(=O)N(CCCCCCBr)c2ccc3c(ccn3C)c2)cc(OC)c1OC
HeLa [1]
  IC50: > 1000 nM
